Test results published in PMC10058827, “A New Way to 2,3,4-Trisubstituted Benzo[h]quinolines: Synthesis, Consecutive Reactions and Cellular Activities” (Molecules, 2023).
Like-named read-outs stand apart in the source and are kept apart here.

Experiments:
Format in all cases: cell-based
[1] = tested on: Staphylococcus aureus MRSA (DSM 11822); assay: Antibacterial growth inhibition screen, residual growth in % (OD600); conditions: for activity at 5 µM: Staphylococcus aureus, strain DSM 11822, compound concentration 5 µM, 18 h at 37 °C; for activity against MRSA (in words): growth inhibition assay
Description: (§1) Overnight cultures of the bacteria were grown aerobically at 37 °C in Müller–Hinton broth with added 1% glucose and a pH of 7.2 for Gram-negative strains, or with a Trypticase soy yeast extract medium (TSY—30 g/L Trypticase soy broth, 3 g/L yeast extract, pH 7.2) for Gram-positive strains. […] A total of 25 μL of test culture was added to 25 μL of a serial dilution of the test compounds in the appropriate medium for the different strains in accordance with standardized procedures in 384-well plates. For screening purposes, the residual absorbance in % was tested at the compound concentrations of 5 and 50 µM. For the selected compounds, the concentration-dependent growth inhibition curves were recorded from the stock solutions in DMSO at the final concentrations of 100, 50, 25, 12.5, 6,25, 3.125, 1.56, 0.78, 0.39, and 0.2 µM. As the positive control compounds, Linezolid (both MRSA strains) Ciprofloxacin (E. faecium, E. coli), and Amikacin (P. aeruginosa) were applied. The highest DMSO concentration in the assay was 1%, which had no apparent effect on the growth of the bacteria. After an incubation time of 18 h at 37 °C under moist conditions, the optical density at 600 nm was measured with a Fusion Universal Microplate Analyzer (Perkin–Elmer, Waltham, MA, USA). […] The following bacterial strains were used: Gram-negative: Escherichia coli (DSM 1116) and Pseudomonas aeruginosa PA7 (DSM 24068), and Gram-positive: Staphylococcus aureus MRSA (clinical isolate, RKI 11-02670) and Staphylococcus aureus MRSA (DSM 11822). The MIC values were determined by curve fitting with Sigma Plot.

[2] = tested on: Staphylococcus aureus MRSA (clinical isolate, RKI 11-02670); assay: Antibacterial MIC determination, concentration-dependent growth inhibition
Description: as §1

[3] = tested on: conditional immortalized human fibroblast cell line FS4-LTM; assay: Antiproliferative WST-1 assay; conditions: WST-1, 24 h
Description: (§2) In addition to probing effects on bacterial pathogens, the compounds’ ability to interfere with the proliferation and/or viability of four mammalian cell lines was assessed by quantifying their mitochondrial dehydrogenase activity in a colorimetric assay with the tetrazolium dye WST-1. […] The effects of the compounds on cell viability were probed with a WST-1 test using the procedure of Ishiyama et al. as modified by Sasse et al.. […] Briefly, the subconfluent cells were washed with Earle’s Balanced Salt Solution (Gibco) without Ca and Mg ions, trypsinized, and re-suspended in Dulbecco’s modified eagle’s medium that contained 5% fetal bovine serum (FBS; L929, KB-3-1, FS4-LTM) or Roswell Park Memorial Institute medium that contained 5% FBS, 0.5% Minimum Essential Medium Non-Essential Amino Acids, Gibco (MEM NEAA), 0.5% GlutaMAX (Gibco), and insulin at 5 μg/mL (MCF-7). […] The blank and solvent controls were incubated under identical conditions. After an incubation period of 5 days (for L929, KB-3-1, and MCF-7) or 24 h (for FS4-LTM), 3 μL of WST-1 (ready-to-use solution by Roche) was added. The incubation time of the plates at 37 °C varied between the cell lines from 20 min for KB-3-1, 30 min for L929, 1 h for FS4-LTM, to 2 h for MCF-7, before measuring absorbance at 450 nm (reference 600 nm) with an Infinite 200 PRO plate reader (Tecan, Männedorf, Switzerland). As the positive control compounds, Auranofin and Staurosporin were applied. The absorbance of the solvent control was set to 100%. The EC50 values were determined with Sigma Plot.

[4] = tested on: human cervical carcinoma cell line KB-3-1; assay: Antiproliferative WST-1 assay; conditions: WST-1, 5 days
Description: as §2

[5] = tested on: mouse fibroblast cell line L929; assay: Antiproliferative WST-1 assay; conditions: WST-1, 5 days
Description: as §2

[6] = tested on: human breast cancer cell line MCF-7; assay: Antiproliferative WST-1 assay; conditions: WST-1, 5 days
Description: (§3) In addition to probing effects on bacterial pathogens, the compounds’ ability to interfere with the proliferation and/or viability of four mammalian cell lines was assessed by quantifying their mitochondrial dehydrogenase activity in a colorimetric assay with the tetrazolium dye WST-1.
The effects of the compounds on cell viability were probed with a WST-1 test using the procedure of Ishiyama et al. as modified by Sasse et al.. […] Briefly, the subconfluent cells were washed with Earle’s Balanced Salt Solution (Gibco) without Ca and Mg ions, trypsinized, and re-suspended in Dulbecco’s modified eagle’s medium that contained 5% fetal bovine serum (FBS; L929, KB-3-1, FS4-LTM) or Roswell Park Memorial Institute medium that contained 5% FBS, 0.5% Minimum Essential Medium Non-Essential Amino Acids, Gibco (MEM NEAA), 0.5% GlutaMAX (Gibco), and insulin at 5 μg/mL (MCF-7). […] The blank and solvent controls were incubated under identical conditions. After an incubation period of 5 days (for L929, KB-3-1, and MCF-7) or 24 h (for FS4-LTM), 3 μL of WST-1 (ready-to-use solution by Roche) was added. The incubation time of the plates at 37 °C varied between the cell lines from 20 min for KB-3-1, 30 min for L929, 1 h for FS4-LTM, to 2 h for MCF-7, before measuring absorbance at 450 nm (reference 600 nm) with an Infinite 200 PRO plate reader (Tecan, Männedorf, Switzerland). As the positive control compounds, Auranofin and Staurosporin were applied. The absorbance of the solvent control was set to 100%. The EC50 values were determined with Sigma Plot.

[7] = tested on: four mammalian cell lines (L929, KB-3-1, MCF-7, FS4-LTM); assay: Antiproliferative WST-1 assay, range over all four cell lines; conditions: 5 days (L929, KB-3-1, MCF-7) or 24 h (FS4-LTM)
Description: as §3
The effects of the compounds on cell viability were probed with a WST-1 test using the procedure of Ishiyama et al. as modified by Sasse et al.. […] Briefly, the subconfluent cells were washed with Earle’s Balanced Salt Solution (Gibco) without Ca and Mg ions, trypsinized, and re-suspended in Dulbecco’s modified eagle’s medium that contained 5% fetal bovine serum (FBS; L929, KB-3-1, FS4-LTM) or Roswell Park Memorial Institute medium that contained 5% FBS, 0.5% Minimum Essential Medium Non-Essential Amino Acids, Gibco (MEM NEAA), 0.5% GlutaMAX (Gibco), and insulin at 5 μg/mL (MCF-7). […] After an incubation period of 5 days (for L929, KB-3-1, and MCF-7) or 24 h (for FS4-LTM), 3 μL of WST-1 (ready-to-use solution by Roche) was added. The incubation time of the plates at 37 °C varied between the cell lines from 20 min for KB-3-1, 30 min for L929, 1 h for FS4-LTM, to 2 h for MCF-7, before measuring absorbance at 450 nm (reference 600 nm) with an Infinite 200 PRO plate reader (Tecan, Männedorf, Switzerland). […] The absorbance of the solvent control was set to 100%. The EC50 values were determined with Sigma Plot.

[8] = strain RKI 11-02670, 18 h at 37 °C, read-out: MRSA MIC
[9] = strain RKI 11-02670, converted from µM, read-out: MRSA MIC (µg/mL values in brackets)

Row | EC50 ([4]; Homo sapiens, KB 3-1, 120 h) | EC50 ([6]; Homo sapiens, MCF7, 120 h) | SMILES | activity at 5 µM [1] | activity against MRSA (in words) [1] | EC50 ([3]; Homo sapiens, FS4-LTM) | EC50 ([5]; Mus musculus, L929, 120 h) | also measured
1 | 6.9 µM | 17 µM | O=C(O)CSc1nc2c(ccc3ccccc32)c(C(Cl)Cl)c1[N+](=O)[O-] [Compound 13, 2-((4-(Dichloromethyl)-3-nitrobenzo[h]quinolin-2-yl)thio)acetic acid] | 1% | high activity | 15.7 µM | 45 µM | MIC [2, 8]: 8.4 µM; MIC [2, 9]: 3.3 µg/mL; EC50 [7]: 6.9 to 45 µM
2 | – | – | O=[N+]([O-])c1c(-n2cccn2)nc2c(ccc3ccccc32)c1C(Cl)Cl [Compound 18c, 4-(Dichloromethyl)-3-nitro-2-(1H-pyrazol-1-yl)benzo[h]quinoline] | 110% | – | – | – | –
3 | 3.1 µM | > 50 µM | O=[N+]([O-])c1c([S+]([O-])c2ccc(F)cc2)nc2c(ccc3ccccc32)c1C(Cl)Cl (centres unmarked) [Compound 12, 4-(Dichloromethyl)-2-((4-fluorophenyl)sulfinyl)-3-nitrobenzo[h]quinoline] | 2% | – | 4.4 µM | 3.3 µM | MIC [2, 8]: 1.2 µM; MIC [2, 9]: 0.5 µg/mL
4 | > 50 µM | 19 µM | O=[N+]([O-])c1c(N2CCCCC2)nc2c(ccc3ccccc32)c1C(Cl)Cl [Compound 11a, 4-(Dichloromethyl)-3-nitro-2-(piperidin-1-yl)benzo[h]quinoline] | 95.6% | inactive | > 50 µM | > 50 µM | –
5 | 3.8 µM | 3.5 µM | CCOC(=O)C[S+]([O-])c1nc2c(ccc3ccccc32)c(C(Cl)Cl)c1[N+](=O)[O-] (centres unmarked) [Compound 8, Ethyl 2-((4-(dichloromethyl)-3-nitrobenzo[h]quinolin-2-yl)sulfinyl)acetate] | 1% | – | 3.4 µM | 2.5 µM | MIC [2, 8]: 17.5 µM; MIC [2, 9]: 7.7 µg/mL; EC50 [7]: 2.5 to 3.8 µM
6 | – | – | O=[N+]([O-])/C(C(Cl)=C(Cl)Cl)=C(\Nc1cccc2ccccc12)n1nnc2ccccc21 [Compound 17a, (E)-N-(1-(1H-Benzo[d][1,2,3]triazol-1-yl)-3,4,4-trichloro-2-nitrobuta-1,3-dien-1-yl)naphthalen-1-amine] | 120% | – | – | – | –
7 | – | – | O=[N+]([O-])C(C(Cl)=C(Cl)Cl)=C(n1cccn1)n1cccn1 [Compound 16c, 1,1’-(3,4,4-Trichloro-2-nitrobuta-1,3-diene-1,1-diyl)bis(1H-pyrazole)] | 126% | no activity | – | – | –
8 | – | – | CC(=O)OC[C@H]1O[C@@H]([S-])[C@H](OC(C)=O)[C@@H](OC(C)=O)[C@@H]1OC(C)=O.CCP(CC)CC.[Au+] [Auranofin, reference compound] | – | – | – | – | EC50 [3]: 1.3 µM; EC50 [4]: 0.6 µM; EC50 [5]: 0.4 µM; EC50 [6]: 3.5 µM
9 | – | – | O=[N+]([O-])/C(C(Cl)=C(Cl)Cl)=C(\Nc1cccc2ccccc12)n1cncn1 [Compound 17b, (E)-N-(3,4,4-Trichloro-2-nitro-1-(1H-1,2,4-triazol-1-yl)buta-1,3-dien-1-yl)naphthalen-1-amine] | 112% | – | – | – | –
10 | – | – | CC(=O)NC[C@H]1CN(c2ccc(N3CCOCC3)c(F)c2)C(=O)O1 [Linezolid, reference compound] | 1% | – | – | – | MIC [2, 8]: 0.4 µM
11 | < 0.1 µM | > 50 µM | O=[N+]([O-])c1c(Sc2ccc(F)cc2)nc2c(ccc3ccccc32)c1C(Cl)Cl [Compound 10d, 4-(Dichloromethyl)-2-((4-fluorophenyl)thio)-3-nitrobenzo[h]quinoline] | 98.4% | complete loss of activity | > 50 µM | > 50 µM | –
12 | – | – | CCOC(=O)CSc1nc2c(ccc3cc4ccccc4cc32)c(C(Cl)Cl)c1[N+](=O)[O-] [Compound 6, Ethyl 2-((4-(dichloromethyl)-3-nitronaphtho[2,3-h]quinolin-2-yl)thio)acetate] | 112% | inactive | – | – | –
13 | – | – | O=[N+]([O-])/C(C(Cl)=C(Cl)Cl)=C(\Nc1cccc2ccccc12)n1cccn1 [Compound 17c, (E)-N-(3,4,4-Trichloro-2-nitro-1-(1H-pyrazol-1-yl)buta-1,3-dien-1-yl)naphthalen-1-amine] | 101% | – | – | – | –
14 | 10 µM | 50 µM | O=[N+]([O-])c1c(N2CCOCC2)nc2c(ccc3ccccc32)c1C(Cl)Cl [Compound 11b, 4-(4-(Dichloromethyl)-3-nitrobenzo[h]quinolin-2-yl)morpholine] | 123% | inactive | > 50 µM | 27 µM | –
15 | – | – | O=[N+]([O-])c1c(-n2cncn2)nc2c(ccc3ccccc32)c1C(Cl)Cl [Compound 18b, 4-(Dichloromethyl)-3-nitro-2-(1H-1,2,4-triazol-1-yl)benzo[h]quinoline] | 107% | – | – | – | –
16 | – | – | O=[N+]([O-])c1c(-n2nnc3ccccc32)nc2c(ccc3ccccc32)c1C(Cl)Cl [Compound 18a, 2-(1H-Benzo[d][1,2,3]triazol-1-yl)-4-(dichloromethyl)-3-nitrobenzo[h]quinoline] | 95.1% | – | – | – | –

Row | SMILES | EC50 ([4]; Homo sapiens, KB 3-1, 120 h) | EC50 ([6]; Homo sapiens, MCF7, 120 h) | activity at 5 µM [1] | activity against MRSA (in words) [1] | EC50 ([3]; Homo sapiens, FS4-LTM) | EC50 ([5]; Mus musculus, L929, 120 h) | also measured
17 | CN[C@@H]1C[C@H]2O[C@@](C)([C@@H]1OC)n1c3ccccc3c3c4c(c5c6ccccc6n2c5c31)C(=O)NC4 [Staurosporine, reference compound] | – | < 0.14 µM | – | – | – | – | –
